Measurements reported in patent US6596474B1, “Prevention and treatment of amyloid-associated disorders” (Scios Inc., priority 1999, dated 2003).
pEC50, pKi: −log10 of the molar value.

Columns and labels:
primary glia = assay: Aβ:PGE2 activation of primary glia in presence of EP2 antagonist; assay type: cell-based; conditions: even at 10-fold higher concentration than the Kd; FIG. 7
BV-2 microglia = assay: Aβ stimulation of BV-2 cells in presence of antagonist or antisense; assay type: cell-based, murine
Description: In addition, the EP2 antagonist AH6809 had no effect on Aβ stimulation of BV-2 cells (FIG. 7). Aβ treatment of BV-2 microglia has two striking morphological effects. First, cells clumped in a manner consistent with the well documented microglial chemotactic activity to Aβ. Second, the morphology of individual cells is altered such that they change from a spherical to an elongated, process bearing shape.
Since selective EP4 antagonists were unavailable, an antisense approach is used to probe involvement of EP4 in Aβ:PGE2 activation of microglia. The antisense oligonucleotides are first tested for their ability to inhibit EP4 expression by measuring their effect on PGE2 stimulation of cAMP accumulation, an EP2/EP4 mediated event. Once the activity of the antisense oligonucleotide is confirmed, the effect of the oligonucleotide on Aβ:PGE2 activation is tested in BV-2 microglial cells.
Next, BV-2 cells are pretreated with the antisense oligonucleotides for 48 hours and then, in the continued presence of the oligonucleotide, the pretreated cells are exposed to Aβ. […] The EP4 construct decreases IL-1β by 50%, a substantial effect for this method of inhibition (FIG. 8).

EP2 = EP2 (Homo sapiens, UniProt P43116); assay: PGE2 stimulated cAMP accumulation functional assay; assay type: cell-based; conditions: read-out: EC50 for inhibition of PGE2 induced cAMP generation
Description: (§2) An EP1/2 selective antagonist AH6809 (Woodward et al., 1995) was used to block the activity of EP2.

EP4 = EP4 (Homo sapiens, UniProt P35408); assay: [3H]-PGE2 binding to EP4
Description: as §2

EP1 = target: T1, EP1 (Homo sapiens, UniProt P34995); assay: [3H]-PGE2 binding to EP1; conditions: read-out: Ki for inhibition of [3H]-PGE2 binding to EP1
T1 sequence (P34995 1-402): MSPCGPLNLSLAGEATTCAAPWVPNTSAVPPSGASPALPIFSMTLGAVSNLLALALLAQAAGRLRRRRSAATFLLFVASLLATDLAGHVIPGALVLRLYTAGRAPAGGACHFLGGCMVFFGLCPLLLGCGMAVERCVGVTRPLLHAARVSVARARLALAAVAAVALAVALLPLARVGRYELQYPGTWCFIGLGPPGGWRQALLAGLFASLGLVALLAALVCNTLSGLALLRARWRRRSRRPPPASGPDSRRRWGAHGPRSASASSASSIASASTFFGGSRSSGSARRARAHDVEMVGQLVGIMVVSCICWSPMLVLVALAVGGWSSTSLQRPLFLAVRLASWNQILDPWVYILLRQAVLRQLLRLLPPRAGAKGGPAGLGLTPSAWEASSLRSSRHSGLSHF
Description: as §2

microglia = assay: cAMP pathway agents as co-activators with Aβ of microglia; assay type: cell-based
Description: Two of the four PGE2 isoforms, EP2 and EP4, are coupled to Gs and elevate cAMP levels upon activation. EP3 is coupled to Gi and inhibits cAMP production while EP1 increased Ca^++i. As a first step in distinguishing the receptor isoform mediating the PGE2 signal, the second messenger in the Aβ coactivation pathway was identified.

[1] = tested on: BV-2 murine microglial cells; assay: Aβ activation of BV-2 cells (IL-1α); assay type: cell-based; conditions: exogenous PGE2 co-incubation
Description: BV-2 murine microglial cells display many phenotypic properties of primary microglia (Blasi et al., 1990; Bocchini et al., 1992), including responsiveness to Aβ (Murphy et al., 1998). BV-2 cells are quasi-activated under basal culture conditions and secrete significant quantities of PGE2, and Aβ treatment alone induces IL-1α in BV-2 cells. […] This was believed to result from co-activation by endogenous PGE2.
The PGE2 concentration in the 24 hour conditioned media from a BV-2 cell culture was a typically 500-800 pg/ml, well above that used for Aβ:PGE2 stimulation. […] Aβ activation of BV-2 cells is highly reproducible, having been observed in 90% of experiments with a mean stimulation of 3.2 fold (n=21; p<0.05 vs. media control).

[2] = tested on: mouse microglial cell line MMGT-16; assay: Aβ:PGE2 synergy in MMGT-16 cells, cytokine secretion; assay type: cell-based; conditions: agent alone
Description: The protocol described above in Example 2 was then used to examine the synergy between PGE2 and Aβ in the mouse microglial cell line MMGT-16.
Synergy in MMGT-16 cells was examined by measuring secretion of both TNF-α (FIG. 5) and IL-1β (FIG. 4).

[3] = tested on: primary cortical mixed glial cultures; assay: Aβ:PGE2 synergy in primary cortical mixed glial cultures, cytokine levels; assay type: cell-based, mice; conditions: agent alone; 100 pg/ml PGE2 or 11 hour aged Aβ; 48 hours; indomethacin pretreated
Description: (§1) As co-culture with astrocytes is known to promote the resting state for cultured microglia, mixed primary glial cultures are a particularly suitable system in which to examine PGE2:Aβ synergy. Briefly, cortices from P3 wild type mice were dissected in Ca^2+ and Mg^2+ free HBSS (Gibco). Meninges were carefully dissected away, and the tissue transferred to a dish containing HBSS supplemented with 0.53 mM EDTA and 0.05% trypsin. The tissue was incubated for 18 minutes at room temperature with occasional gentle agitation. Trypsin was removed and the tissue washed with HBSS twice prior to titration in growth medium consisting of high glucose DMEM supplemented with 10% fetal bovine serum (FBS), 110 mg/L sodium pyruvate, and 5 units/ml penicillin/streptomycin. The cell suspension was plated at 9 cortices in growth medium into one T75 and one T25 flask. The next day, nonadherent cells were removed. The culture was refed with growth medium at this time and once every 3 days following. When the culture appeared quite confluent, approximately one week, it was trypsinized and split into 48 well plates at 10^5 cells/well. Experiments were initiated in several days when cells again reached confluence.
The effect of Aβ in the presence and absence of exogenous PGE2 was investigated in these primary cortical mixed glial cultures. An Aβ peptide was resuspended at 4 mg/ml in 50% HFIP, incubated overnight at 37° C., dried in a Speed Vac, and resuspended in water at 4 mg/ml. The peptide was then “aged” at 37° C. for 11 or 24 hours and sonicated for 30 seconds on ice prior to use.
100 pg/ml of PGE2 is a low dose that is not expected to stimulate receptors for thromboxane or other prostenoids and is likely to be physiologically relevant. […] Treatments were made in duplicate. After 48 hours, media and lysates were harvested and assayed.
We confirmed the cellular source of the if biochemical signal by immunocytochemistry with an anti-mouse IL-1α monoclonal antibody (R&D Systems).

[4] = tested on: primary mixed murine glial cultures; assay: PGE2 in medium conditioned by primary mixed murine glial cultures; assay type: cell-based; conditions: 14 μM indomethacin during 48 hour conditioning; basal just under 200 pg/ml
Description: as §1
This is within the range in which would allow PGE2:Aβ synergy to be observed.

Sequence of EP2 (P43116 whole entry): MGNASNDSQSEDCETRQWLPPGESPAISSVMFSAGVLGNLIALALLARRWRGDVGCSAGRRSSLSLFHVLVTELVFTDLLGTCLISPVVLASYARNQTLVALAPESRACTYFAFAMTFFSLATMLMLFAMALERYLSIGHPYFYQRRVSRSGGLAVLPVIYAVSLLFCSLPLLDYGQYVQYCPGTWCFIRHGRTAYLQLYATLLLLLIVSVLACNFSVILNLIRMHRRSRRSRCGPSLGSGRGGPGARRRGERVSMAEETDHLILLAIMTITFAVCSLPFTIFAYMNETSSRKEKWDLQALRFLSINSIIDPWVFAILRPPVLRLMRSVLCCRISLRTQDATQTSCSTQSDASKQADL
Sequence of EP4 (P35408 whole entry): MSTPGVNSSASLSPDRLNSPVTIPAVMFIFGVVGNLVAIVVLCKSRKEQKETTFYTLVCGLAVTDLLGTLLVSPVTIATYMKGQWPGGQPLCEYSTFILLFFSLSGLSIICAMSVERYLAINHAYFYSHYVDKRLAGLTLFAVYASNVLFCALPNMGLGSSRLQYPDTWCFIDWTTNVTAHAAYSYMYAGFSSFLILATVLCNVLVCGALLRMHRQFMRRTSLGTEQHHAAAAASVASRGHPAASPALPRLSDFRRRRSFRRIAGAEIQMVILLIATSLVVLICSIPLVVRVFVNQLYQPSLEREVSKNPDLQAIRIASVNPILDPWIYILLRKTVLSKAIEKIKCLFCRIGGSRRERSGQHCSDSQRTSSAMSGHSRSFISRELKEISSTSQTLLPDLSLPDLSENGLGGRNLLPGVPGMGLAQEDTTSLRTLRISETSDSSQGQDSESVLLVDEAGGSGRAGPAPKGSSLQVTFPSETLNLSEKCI

CC(C)Oc1ccc2c(=O)c3cc(C(=O)O)ccc3oc2c1 [AH6809]
effect on Aβ:PGE2 activation of primary glia (primary glia): no effect | effect on morphological responses to Aβ (clumping, elongated process bearing shape) (BV-2 microglia; BV-2 microglia): no effect on either response | effect on Aβ stimulation of BV-2 cells (BV-2 microglia; FIG. 7): no effect | pEC50 (EP2): 6.00 | inhibition of [3H]-PGE2 binding to EP4 (EP4): lack of AH6809 inhibition | pKi (EP1): 6.00

COc1ccc(C2CNC(=O)C2)cc1OC1CCCC1 (stereo not drawn) [rolipram]
effect on Aβ:PGE2 stimulation of microglial cytokine production (microglia): enhance

CCCCC[C@H](O)/C=C/[C@H]1[C@H](O)CC(=O)[C@@H]1C/C=C\CCCC(=O)O [PGE2, Prostaglandin E2]
enhancement of Aβ-induced IL-1α elevation [1]: not further enhanced | TNF-α secretion [2]: no discernable effect | secretion of IL-1β [2]: unaffected | intracellular IL-1α [3]: Neither PGE2 nor 11 hour aged Aβ alone had an effect | secreted IL-1α [3]: Neither PGE2 nor 11 hour aged Aβ alone had an effect | secreted IL-6 [3]: Neither PGE2 nor 11 hour aged Aβ alone had an effect

Nc1ncnc2c1nc(Br)n2[C@@H]1O[C@@H]2COP(=O)(O)O[C@H]2[C@H]1O [8-Br-cAMP]
substitution for PGE2 as co-activator with Aβ (microglia): ability to substitute for PGE2 as a coactivator with Aβ

COc1ccc2c(c1)c(CC(=O)O)c(C)n2C(=O)c1ccc(Cl)cc1 [indomethacin]
PGE2 secretion [4]: about 30 pg/ml
